The source of these data is patent US7022738B2, “α-ketoamide derivative and use thereof” (Senju Pharmaceutical Co., Ltd., priority 2002, dated 2006).

Data set [1] is described as follows: Permeability test with Caco-2 cells. The data set is classed as in vitro ADME. The following applies: human, Caco-2 monolayer, apical to basolateral, 30 and 60 minutes, read-out: apparent permeation coefficient (Papp). Here is the method: Permeability Test with Caco-2 Cells
0.5×10^6/cm^2 of Caco-2 cells (ATCC Catalog No. HTB-37, Manassas, Va., USA) were seeded into Transwell (polycarbonate filter: pore diameter 0.4 μm; culture area 0.33 cm^2; available from Costar Co.), and incubated in Dulbecco's modified Eagle's minimum essential medium (DMEM; available from Fisher Scientific International Inc.) for 21 to 30 days under the conditions of 37° C., 5% CO2 and 95% relative humidity, whereby a monolayer cell was prepared. The confluence of such a monolayer cell was evaluated by measuring trans epithelial electronic resistance (TEER). […] Based on the quantification results, apparent permeation coefficient (Papp) was calculated according to the formula: Papp=(δQ/δt)×(1/60AC0). • Papp: apparent permeation coefficient (cm/sec) • δQ/δt: permeation velocity (pmol/min) • A: area of monolayer cell=0.33 cm^2 • C0: initial concentration at apical membrane side (pmol/mL)
For orientation: Passage across Caco-2 layers is used to estimate intestinal permeability.

Broadly, the melting point is the temperature, or range, at which the solid turns liquid. Compound `CCCCNC(=O)C(=O)[C@H](CC(C)C)NC(=O)[C@@H](NS(=O)(=O)c1ccc(F)cc1)C(C)C` [Compound 1, (3S)-N-Butyl-3-((2S)-2-(((4-fluorophenyl)sulfonyl)amino)-3-methylbutanoylamino)-5-methyl-2-oxohexanamide] came in with a melting point of 107.6 to 109.9 °C. Moreover, in data set [1], the Papp A→B at 60 min, 10 μM worked out at 170 nm/s.
